Measured values from patent US20120065195A1, “COMPOUNDS FOR TREATING NEURODEGENERATIVE DISEASES” (priority 2010, published 2012).

target: T1, BACE1 (Homo sapiens, UniProt P56817); assay: Cellular BACE1 Inhibition Assay (in vitro cellular Amyloidβ 1-40 production assay, HTRF immunoassay); assay type: cell-based
T1 construct: endogenous in cells; host or cells: HEK-293 (stably transfected with wild type APP695 only)
Experimental: The BACE inhibition properties of the compounds of the invention may be determined by the following in vitro cellular Amyloidβ 1-40 production assay.
Inhibition of Amyloidβ1-40 production was determined by incubating cells with compound for 48 hours and quantifying the level of Amyloidβ 1-40 using an HTRF immunoassay.
Materials and Methods: HEK-293 cells stably transfected with a DNA construct containing the coding sequence for the wild type APP695 sequence were grown in DMEM supplemented with 10% fetal bovine serum, penicillin/streptomycin and 150 μg/mL G418. Cells were plated in 96-well plates at 35,000 cells/well and allowed to attach for 8-12 hours. Media was changed to DMEM supplemented with 10% fetal bovine serum, penicillin/streptomycin 15 minutes prior to compound addition. Diluted compounds were then added at a final concentration of 0.5% DMSO. After 48 hours, 4 μL of media from each well was added to a corresponding well of a 384 well plate (Perkin Elmer Cat#6008280) containing the HTRF reagents. HTRF reagents were obtained from the CisBio Amyloidβ 1-40 peptide assay kit (Cat#62B40PEC) and were prepared as follows anti-peptide β (1-40)-Cryptate and anti-peptide β (1-40)-XL655 were stored in 2 plate aliquots at −80° C. Diluent and Reconstitution buffer were stored at 4° C. Aliquots of the two antibodies were diluted 1:100 with Reconstitution buffer, and this mixture was diluted 1:2 with Diluent. 12 μL of the reagent mixture was added to the required wells of the 384 well assay plate. The assay plate was incubated at 4° C. for 17 hours and then analyzed for fluorescence at 665 and 620 nm.

T1 sequence (P56817 46-501): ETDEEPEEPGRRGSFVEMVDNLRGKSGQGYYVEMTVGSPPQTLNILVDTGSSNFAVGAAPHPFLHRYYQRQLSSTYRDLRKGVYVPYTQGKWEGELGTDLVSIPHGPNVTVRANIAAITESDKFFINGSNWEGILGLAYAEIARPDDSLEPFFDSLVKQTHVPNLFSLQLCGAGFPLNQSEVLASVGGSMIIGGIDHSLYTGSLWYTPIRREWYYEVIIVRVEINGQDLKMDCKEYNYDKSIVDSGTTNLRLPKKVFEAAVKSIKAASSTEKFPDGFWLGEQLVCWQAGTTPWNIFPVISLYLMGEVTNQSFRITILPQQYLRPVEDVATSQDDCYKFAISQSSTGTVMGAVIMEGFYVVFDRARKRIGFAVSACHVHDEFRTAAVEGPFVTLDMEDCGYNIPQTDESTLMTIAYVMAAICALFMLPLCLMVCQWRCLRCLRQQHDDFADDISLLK

Row | SMILES | IC50 [nM]
1 | CN1C(=O)C2(CCCc3ccc(-c4cccc(Cl)c4)cc32)N=C1N (stereo not drawn) [Example 24, 2-amino-7′-(3-chlorophenyl)-1-methyl-3′,4′-dihydro-2′H-spiro[imidazole-4,1′-naphthalen]-5(1H)-one] | 189
2 | CC1CCc2ccc(-c3cc(F)cc(Cl)c3)cc2C12N=C(N)N(C)C2=O (stereo not drawn) [Example 56, 2-amino-7′-(3-chloro-5-fluorophenyl)-1,2′-dimethyl-3′,4′-dihydro-2′H-spiro[imidazole-4,1′-naphthalen]-5(1H)-one] | 361
3 | CC(C)CCc1ccc2c(c1)C1(N=C(N)N(C)C1=O)C(C)CC2 (stereo not drawn) [Example 22] | 264
4 | CN1C(=O)C2(CC3(CCOCC3)Cc3ccc(/C=C/C(C)(C)C)cc32)N=C1N (stereo not drawn) [Example 45, (E)-2-amino-7″-(3,3-dimethylbut-1-enyl)-1-methyl-2′,3′,5′,6′-tetrahydro-3″,4″-dihydro-2″H-dispiro[imidazol-4,1″-naphthalen-3″,4′-pyran]-5(1H)-one] | 69.6
5 | CN1C(=O)C2(N=C1N)c1cc(-c3cccc(C#N)c3)ccc1CCC2(C)C (stereo not drawn) [Example 28, 3-(2-amino-1,2′,2′-trimethyl-5-oxo-1,3′,4′,5-tetrahydro-2′H-spiro[imidazole-4,1′-naphthalene]-7′-yl)benzonitrile] | 92.5

The next molecules have a lower IC50 than those just listed; values first:

Row | IC50 [nM] | SMILES
6 | 19.7 | CN1C(=O)C2(N=C1N)c1cc(-c3cncc(Cl)c3)ccc1CCC2(C)C (stereo not drawn) [Example 26, 2-amino-7′-(5-chloropyridin-3-yl)-1,2′,2′-trimethyl-3′,4′-dihydro-2′H-spiro[imidazole-4,1′-naphthalen]-5(1H)-one]
7 | 28.5 | CN1C(=O)C2(CCCc3ccc(-c4cncc(Cl)c4)cc32)N=C1N (stereo not drawn) [Example 23, 2-amino-7′-(5-chloropyridin-3-yl)-1-methyl-3′,4′-dihydro-2′H-spiro[imidazole-4,1′-naphthalen]-5(1H)-one]
8 | 6.1 | COc1ccnc(-c2ccc3c(c2)C2(CC(C)(C)C3)N=C(N)N(C)C2=O)c1 (stereo not drawn) [Example 137, 2-amino-7′-(4-methoxypyridin-2-yl)-1,3′,3′-trimethyl-3′,4′-dihydro-2′H-spiro[imidazole-4,1′-naphthalen]-5(1H)-one]
9 | 46.3 | CC1(C)Cc2ccc(NC(=O)c3ccc(Br)cn3)cc2C2(COC(N)=N2)C1 (stereo not drawn) [Example 88, N-(2′-amino-3,3-dimethyl-3,4-dihydro-2H,5′H-spiro[naphthalene-1,4′-oxazole]-7-yl)-5-bromopicolinamide]
